Measurements published in US20210317134A1, “UBIQUITIN-SPECIFIC-PROCESSING PROTEASE 7 (USP7) MODULATORS AND USES THEREOF” (RAPT THERAPEUTICS, INC., priority 2019, published 2021).
pIC50: −log10 of the molar value.

Molecular target: USP7 (Homo sapiens, UniProt Q93009)
Assay: USP7 inhibitory potency (Table 1)
Type: biochemical

Sequence of USP7 (Q93009 whole entry): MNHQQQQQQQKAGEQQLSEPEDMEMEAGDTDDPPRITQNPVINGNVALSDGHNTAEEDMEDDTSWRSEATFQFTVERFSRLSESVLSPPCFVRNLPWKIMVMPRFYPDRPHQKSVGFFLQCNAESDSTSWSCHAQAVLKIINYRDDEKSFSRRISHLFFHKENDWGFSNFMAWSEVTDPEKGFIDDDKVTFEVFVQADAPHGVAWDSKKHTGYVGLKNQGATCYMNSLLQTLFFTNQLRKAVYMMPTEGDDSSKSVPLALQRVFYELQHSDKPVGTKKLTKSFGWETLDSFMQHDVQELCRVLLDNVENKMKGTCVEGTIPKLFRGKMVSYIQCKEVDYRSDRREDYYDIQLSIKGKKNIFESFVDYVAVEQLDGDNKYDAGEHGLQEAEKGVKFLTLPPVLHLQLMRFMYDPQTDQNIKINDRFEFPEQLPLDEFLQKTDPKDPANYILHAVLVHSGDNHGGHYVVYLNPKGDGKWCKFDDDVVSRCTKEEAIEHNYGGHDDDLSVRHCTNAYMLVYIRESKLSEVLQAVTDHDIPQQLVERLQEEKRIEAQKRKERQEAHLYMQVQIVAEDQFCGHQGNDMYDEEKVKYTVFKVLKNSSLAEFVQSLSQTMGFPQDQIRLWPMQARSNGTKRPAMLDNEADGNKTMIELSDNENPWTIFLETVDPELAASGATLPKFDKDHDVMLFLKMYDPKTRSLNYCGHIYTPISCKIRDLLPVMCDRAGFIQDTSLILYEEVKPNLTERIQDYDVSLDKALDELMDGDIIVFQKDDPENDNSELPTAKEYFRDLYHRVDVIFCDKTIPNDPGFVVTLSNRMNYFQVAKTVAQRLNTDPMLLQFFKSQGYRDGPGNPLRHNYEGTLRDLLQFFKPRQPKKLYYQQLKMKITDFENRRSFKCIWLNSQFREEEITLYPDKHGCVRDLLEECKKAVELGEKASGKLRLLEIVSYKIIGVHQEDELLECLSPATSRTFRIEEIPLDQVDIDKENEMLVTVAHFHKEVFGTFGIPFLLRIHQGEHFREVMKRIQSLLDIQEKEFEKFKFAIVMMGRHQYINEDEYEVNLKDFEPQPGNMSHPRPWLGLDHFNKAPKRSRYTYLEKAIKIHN

Row | Structure (SMILES) | pIC50
1 | FC(F)(F)CN1CCc2noc([C@H]3Cc4cc(Cl)cc(-c5ccnc6ccsc56)c4O3)c2C1 [(R)-3-(5-chloro-7-(thieno[3,2-b]pyridin-7-yl)-2,3-dihydrobenzofuran-2-yl)-5-(2,2,2-trifluoroethyl)-4,5,6,7-tetrahydroisoxazolo[4,3-c]pyridine] | > 6.00
2 | NC(=O)c1cc2nccc(-c3cc(Cl)cc4c3OC(C(=O)N3CCNCC3)C4)c2s1 (stereo not shown) [7-(5-chloro-2-(piperazine-1-carbonyl)-2,3-dihydrobenzofuran-7-yl)thieno[3,2-b]pyridine-2-carboxamide] | 5.00 to 6.00
3 | O=C(C1Cc2cc(Cl)cc(-c3ccnc4ccc(F)cc34)c2O1)N1CCNCC1 (stereo not shown) [(5-chloro-7-(6-fluoroquinolin-4-yl)-2,3-dihydrobenzofuran-2-yl)(piperazin-1-yl)methanone] | 5.00 to 6.00
4 | CN(C)Cc1ncoc1[C@H]1Cc2cc(Cl)cc(-c3ccnc4ccsc34)c2O1 [(R)-1-(5-(5-chloro-7-(thieno[3,2-b]pyridin-7-yl)-2,3-dihydrobenzofuran-2-yl)oxazol-4-yl)-N,N-dimethylmethanamine] | > 6.00
5 | O=C(C1Cc2cc(Cl)cc(-c3ccnc(O)c3)c2O1)N1CCNCC1 (stereo not shown) [(5-chloro-7-(2-hydroxypyridin-4-yl)-2,3-dihydrobenzofuran-2-yl)(piperazin-1-yl)methanone] | 5.00 to 6.00
6 | Cc1cc2ncnc(-c3cc(Cl)cc4c3O[C@@H](c3onc5c3CNCC5)C4)c2o1 [(R)-3-(5-chloro-7-(6-methylfuro[3,2-d]pyrimidin-4-yl)-2,3-dihydrobenzofuran-2-yl)-4,5,6,7-tetrahydroisoxazolo[4,3-c]pyridine] | > 6.00
7 | C[C@@H](c1cc2nccc(-c3cc(Cl)cc4c3O[C@@H](C(=O)N3CCNCC3)C4)c2s1)N1C(=O)CCC1=O [1-((S)-1-(7-((R)-5-chloro-2-(piperazine-1-carbonyl)-2,3-dihydrobenzofuran-7-yl)thieno[3,2-b]pyridin-2-yl)ethyl)pyrrolidine-2,5-dione] | > 6.00
8 | OC1(c2cc3nccc(-c4cc(Cl)cc5c4O[C@@H](c4onc6c4CNCC6)C5)c3s2)CCC1 [(R)-1-(7-(5-chloro-2-(4,5,6,7-tetrahydroisoxazolo[4,3-c]pyridin-3-yl)-2,3-dihydrobenzofuran-7-yl)thieno[3,2-b]pyridin-2-yl)cyclobutan-1-ol] | > 6.00
9 | O=C1OCCN1Cc1cc2nccc(-c3cc(Cl)cc4c3O[C@@H](C(=O)N3CCNCC3)C4)c2s1 [(R)-3-((7-(5-chloro-2-(piperazine-1-carbonyl)-2,3-dihydrobenzofuran-7-yl)thieno[3,2-b]pyridin-2-yl)methyl)oxazolidin-2-one] | > 6.00
10 | CCC1(CO)Cc2nccc(-c3cc(Cl)cc4c3O[C@@H](C(=O)N3CCNCC3)C4)c2C1 (stereo partly drawn) [((2R)-5-chloro-7-(6-ethyl-6-(hydroxymethyl)-6,7-dihydro-5H-cyclopenta[b]pyridin-4-yl)-2,3-dihydrobenzofuran-2-yl)(piperazin-1-yl)methanone] | 5.00 to 6.00
11 | C[C@@H]1CN(C(=O)C2Cc3cc(Cl)cc(-c4ccnc5[nH]ccc45)c3O2)CCN1 (stereo partly drawn) [(5-chloro-7-(1H-pyrrolo[2,3-b]pyridin-4-yl)-2,3-dihydrobenzofuran-2-yl)((R)-3-methylpiperazin-1-yl)methanone] | 5.00 to 6.00
12 | O=C(C1Cc2cc(Cl)cc(-c3ccnc4[nH]c(Cc5cccnc5)cc34)c2O1)N1CCNCC1 (stereo not shown) [(5-chloro-7-(2-(pyridin-3-ylmethyl)-1H-pyrrolo[2,3-b]pyridin-4-yl)-2,3-dihydrobenzofuran-2-yl)(piperazin-1-yl)methanone] | 5.00 to 6.00
13 | C=CCC1(C(=O)N2CCNCC2)Cc2cc(Cl)cc(-c3ccnc4[nH]ccc34)c2O1 (stereo not shown) [(2-allyl-5-chloro-7-(1H-pyrrolo[2,3-b]pyridin-4-yl)-2,3-dihydrobenzofuran-2-yl)(piperazin-1-yl)methanone] | 4.52 to 5.00
14 | CC(O)c1ccc2c(-c3cc(Cl)cc4c3O[C@@H](c3onc5c3CNCC5)C4)ccnc2c1 (stereo partly drawn) [1-(4-((R)-5-chloro-2-(4,5,6,7-tetrahydroisoxazolo[4,3-c]pyridin-3-yl)-2,3-dihydrobenzofuran-7-yl)quinolin-7-yl)ethan-1-ol] | > 6.00
15 | O=C([C@H]1Cc2cc(Cl)cc(-c3ccnc4cc(CN5C(=O)CCNC5=O)sc34)c2O1)N1CCNCC1 [(R)-3-((7-(5-chloro-2-(piperazine-1-carbonyl)-2,3-dihydrobenzofuran-7-yl)thieno[3,2-b]pyridin-2-yl)methyl)dihydropyrimidine-2,4(1H,3H)-dione] | > 6.00
16 | OCCN1CCc2noc([C@H]3Cc4cc(Cl)cc(-c5ncnc6ccoc56)c4O3)c2C1 [(R)-2-(3-(5-chloro-7-(furo[3,2-d]pyrimidin-4-yl)-2,3-dihydrobenzofuran-2-yl)-6,7-dihydroisoxazolo[4,3-c]pyridin-5(4H)-yl)ethan-1-ol] | 5.00 to 6.00
17 | O=C(C1Cc2cc(Cl)cc(-c3ccnc4[nH]ccc34)c2O1)N1CCNCC1 (stereo not shown) [(5-chloro-7-(1H-pyrrolo[2,3-b]pyridin-4-yl)-2,3-dihydrobenzofuran-2-yl)(piperazin-1-yl)methanone] | > 6.00
18 | CN(C)C1CCN(C(=O)C2Cc3cc(Cl)cc(-c4ccnc5[nH]ccc45)c3O2)CC1 (stereo not shown) [(5-chloro-7-(1H-pyrrolo[2,3-b]pyridin-4-yl)-2,3-dihydrobenzofuran-2-yl)(4-(dimethylamino)piperidin-1-yl)methanone] | 5.00 to 6.00
19 | CC[C@@H](O)c1cc2nccc(-c3cc(Cl)cc4c3O[C@@H](c3onc5c3CNCC5)C4)c2s1 [(R)-1-(7-((R)-5-chloro-2-(4,5,6,7-tetrahydroisoxazolo[4,3-c]pyridin-3-yl)-2,3-dihydrobenzofuran-7-yl)thieno[3,2-b]pyridin-2-yl)propan-1-ol] | > 6.00
20 | O=C(C1Cc2cc(Cl)cc(-c3ccnc4[nH]ccc34)c2O1)N1CCC(O)(Cc2ccccc2)CC1 (stereo not shown) [(4-benzyl-4-hydroxypiperidin-1-yl)(5-chloro-7-(1H-pyrrolo[2,3-b]pyridin-4-yl)-2,3-dihydrobenzofuran-2-yl)methanone] | 5.00 to 6.00
21 | O=C1CCC(=O)N1Cc1cc2nccc(-c3cc(Cl)cc4c3O[C@@H](c3onc5c3CNCC5)C4)n2n1 [(R)-1-((7-(5-chloro-2-(4,5,6,7-tetrahydroisoxazolo[4,3-c]pyridin-3-yl)-2,3-dihydrobenzofuran-7-yl)pyrazolo[1,5-a]pyrimidin-2-yl)methyl)pyrrolidine-2,5-dione] | > 6.00
22 | CCC(O)c1cc2nccc(-c3cc(Cl)cc4c3O[C@@H](C(=O)N3CCC(c5cnc[nH]5)CC3)C4)c2s1 (stereo partly drawn) [(4-(1H-imidazol-5-yl)piperidin-1-yl)((2R)-5-chloro-7-(2-(1-hydroxypropyl)thieno[3,2-b]pyridin-7-yl)-2,3-dihydrobenzofuran-2-yl)methanone] | 5.00 to 6.00
23 | O=C(C1Cc2cc(Cl)cc(-c3ccnc4[nH]ccc34)c2O1)N1CCCC(C2CNC2)C1 (stereo not shown) [(3-(azetidin-3-yl)piperidin-1-yl)(5-chloro-7-(1H-pyrrolo[2,3-b]pyridin-4-yl)-2,3-dihydrobenzofuran-2-yl)methanone] | 4.52 to 5.00

Next, values leading:

Row | pIC50 | Structure (SMILES)
24 | > 6.00 | CCC(O)c1cc2nccc(-c3cc(Cl)cc4c3O[C@@H](c3onc5c3CNCC5)C4)c2o1 (stereo partly drawn) [drawing 1618, 1-(7-((R)-5-chloro-2-(4,5,6,7-tetrahydroisoxazolo[4,3-c]pyridin-3-yl)-2,3-dihydrobenzofuran-7-yl)furo[3,2-b]pyridin-2-yl)propan-1-ol]
25 | 5.00 to 6.00 | O=C([C@H]1Cc2cc(Cl)cc(-c3ccnc4cc(CO)sc34)c2O1)N1CCn2cnnc2C1 [(R)-(5-chloro-7-(2-(hydroxymethyl)thieno[3,2-b]pyridin-7-yl)-2,3-dihydrobenzofuran-2-yl)(5,6-dihydro-[1,2,4]triazolo[4,3-a]pyrazin-7(8H)-yl)methanone]
26 | > 6.00 | Clc1cc2c(c(-c3ccnc4ccsc34)c1)O[C@@H](c1[nH]nc3c1CNCC3)C2 [(R)-7-(5-chloro-2-(4,5,6,7-tetrahydro-2H-pyrazolo[4,3-c]pyridin-3-yl)-2,3-dihydrobenzofuran-7-yl)thieno[3,2-b]pyridine]
27 | 5.00 to 6.00 | N#Cc1cc2c(c(-c3ccnc4cc(CO)sc34)c1)OC(C(=O)N1CCNCC1)C2 (stereo in doubt) [(R)-7-(2-(hydroxymethyl)thieno[3,2-b]pyridin-7-yl)-2-(piperazine-1-carbonyl)-2,3-dihydrobenzofuran-5-carbonitrile]
28 | > 6.00 | CNC1CCN(C(=O)[C@H]2Cc3cc(Cl)cc(-c4ccnc5ccsc45)c3O2)CC1 [(R)-(5-chloro-7-(thieno[3,2-b]pyridin-7-yl)-2,3-dihydrobenzofuran-2-yl)(4-(methylamino)piperidin-1-yl)methanone]
29 | > 6.00 | O=C([C@H]1Cc2cc(Cl)cc(-c3ccnc4cc(CO)sc34)c2O1)N1CCNCC1 [(R)-(5-chloro-7-(2-(hydroxymethyl)thieno[3,2-b]pyridin-7-yl)-2,3-dihydrobenzofuran-2-yl)(piperazin-1-yl)methanone]
30 | > 6.00 | CNCCNC(=O)[C@H]1Cc2cc(Cl)cc(-c3ccnc4cc(CO)sc34)c2O1 [(R)-5-chloro-7-(2-(hydroxymethyl)thieno[3,2-b]pyridin-7-yl)-N-(2-(methylamino)ethyl)-2,3-dihydrobenzofuran-2-carboxamide]
31 | > 6.00 | Clc1cc2c(c(-c3ccnc4ccsc34)c1)O[C@H](c1onc3c1CNCC3)C2 [(S)-3-(5-chloro-7-(thieno[3,2-b]pyridin-7-yl)-2,3-dihydrobenzofuran-2-yl)-4,5,6,7-tetrahydroisoxazolo[4,3-c]pyridine]
32 | > 6.00 | Cn1nc2c(c1[C@H]1Cc3cc(Cl)cc(-c4ncnc5cc(CO)sc45)c3O1)CNCC2 [(R)-(4-(5-chloro-2-(2-methyl-4,5,6,7-tetrahydro-2H-pyrazolo[4,3-c]pyridin-3-yl)-2,3-dihydrobenzofuran-7-yl)thieno[3,2-d]pyrimidin-6-yl)methanol]
33 | 4.52 to 5.00 | Cn1nc([C@H]2Cc3cc(Cl)cc(-c4ccnc5cc(Cl)ccc45)c3O2)c2c1CCNC2 [(R)-7-chloro-4-(5-chloro-2-(1-methyl-4,5,6,7-tetrahydro-1H-pyrazolo[4,3-c]pyridin-3-yl)-2,3-dihydrobenzofuran-7-yl)quinoline]
34 | > 6.00 | CC(=O)NC(C)c1cc2nccc(-c3cc(Cl)cc4c3O[C@@H](C(=O)N3CCNCC3)C4)c2s1 (stereo partly drawn) [N-(1-(7-((R)-5-chloro-2-(piperazine-1-carbonyl)-2,3-dihydrobenzofuran-7-yl)thieno[3,2-b]pyridin-2-yl)ethyl)acetamide]
